These results are taken from patent US6689094B2, “Compound delivery using impulse transients” (priority 1996, dated 2004).

In this series the test system is stratum corneum. An excerpt:
For these experiments, a Q-switched solid state ruby laser (20 ns pulse duration, capable of generating up to 2 joules per pulse) was used to generate the laser beam, which hit the target material (black polystyrene sheet about 1 mm thick) and generated a single impulse transient. Impulse transients of up to 1000 bar peak stress and 50 ns duration and with a ½ inch beam diameter can be generated with this laser-target system. The large target ensures that the impulse transients generated are plane waves, because the thickness of the coupling medium is much shorter than the diameter of the impulse transient. An articulating arm was used and the laser path was totally covered for safety.
The washer was attached onto the skin with grease. The sample filled the central opening of the washer, which was approximately ¼ inch in diameter. The target material was positioned on top of the washer and irradiated with 1 laser pulse.
The black polystyrene target completely absorbed the laser radiation so that the skin was exposed only to impulse transients, and not laser radiation. […] The skin was monitored for fluorescence of protophyrin IX thirty minutes after exposure to the impulse transients.
All fluorescence measurements were compared to the fluorescence emission of the target site on the stratum corneum before the experiments.

Turning to `NCC(=O)CCC(=O)O` [ALA, 5-aminolevulenic acid], the “time for which protophyrin IX fluorescence intensity increased until maximum intensity” value (5% ALA in PBS, single impulse transient, skin fluorescence) is “approximately 4 hours”. Also, the “protophyrin IX fluorescence when compound applied after the impulse transient” value (ALA applied on the same sites 5 minutes after impulse transients) is listed as “no fluorescence emission from protophyrin IX was observed”. For the same compound, where the note is “FIG. 1, single impulse transient”, the “time post-treatment at which the fluorescence peak at about 640 nm is highest” value was found to be 210 min. Further, the “change of skin fluorescence intensity over time without impulse transient” value (FIG. 2, adjacent control site, ALA applied without any impulse transients) is on record as “little change in the intensity”. Also, the “dependence of transdermal transport on peak stress” value (FIG. 3, single impulse transient at 300, 400 or 600 bar) is on record as “increases with increasing peak stress”.
